Earlier results in patent publication US11648240B2, “Pharmaceutical composition comprising famotidine, lidocaine and melatonin” (Cellix Bio Private Limited, priority 2021, dated 2023).

Tests used:
CYP1A2 = CYP1A2 (Homo sapiens, UniProt P05177); settings: stated as believed, no test described
[1] = tested on: human immunodeficiency virus; settings: in-vitro studies
sars-cov-2 = settings: in-vitro studies

CYP1A2, sequence (P05177 whole entry, species assumed): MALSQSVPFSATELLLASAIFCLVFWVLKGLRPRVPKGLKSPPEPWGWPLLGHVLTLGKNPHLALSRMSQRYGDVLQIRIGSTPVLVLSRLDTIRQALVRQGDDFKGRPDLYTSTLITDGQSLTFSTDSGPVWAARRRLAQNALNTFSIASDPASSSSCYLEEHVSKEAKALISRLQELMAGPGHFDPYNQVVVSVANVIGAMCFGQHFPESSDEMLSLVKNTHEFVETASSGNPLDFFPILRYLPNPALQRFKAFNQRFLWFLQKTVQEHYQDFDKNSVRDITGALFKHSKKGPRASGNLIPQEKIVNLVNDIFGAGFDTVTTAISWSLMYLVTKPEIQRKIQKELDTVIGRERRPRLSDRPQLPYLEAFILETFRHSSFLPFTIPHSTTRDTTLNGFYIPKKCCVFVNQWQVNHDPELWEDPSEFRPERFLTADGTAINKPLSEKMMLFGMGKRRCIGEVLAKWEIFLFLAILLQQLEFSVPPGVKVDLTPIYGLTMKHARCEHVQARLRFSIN

**Q.** Which “metabolism through Cytochrome P450 system (CYP1A2)” value (CYP1A2) does the source give for `NC(N)=Nc1nc(CSCCC(N)=NS(N)(=O)=O)cs1` [Famotidine] here?
**A.** 25-30%

**Q.** And the “human immunodeficiency virus replication” value [1]?
**A.** inhibits

**Q.** What about the sars-cov-2 replication (sars-cov-2) of the same molecule?
**A.** inhibits
